Assay results as given in patent US20080234188A1, “Antimicrobial Peptides” (The Hospital for Sick Children, priority 2001, published 2008).
Values after ≈ are worked out from the molar mass of the structure shown. Where a SMILES comes first, the peptide text is derived from it.

What was measured:
[1] = test system: E. coli ATCC25922; format: cell-based
From the text: (§1) The bacterial strains used were E. coli C498, E. coli C500, Escherichia coli UB1005 and its antibiotic supersusceptible derivative DC2 (22); a clinical isolate of Staphylococcus epidermidis (C621); coryneform bacterial strain Corynebacterium xerosis (C875); and E. coli ATCC 25922, Staphylococcus aureus ATCC 25923, Enterococcus faecalis ATCC 29212, Bacillus subtilis ATCC 6633 and Pseudomonas aeruginosa ATCC 27853, all from American Type Culture Collection.
(§2) Peptide antibacterial activity was assessed by the method of R. Hancock et al. (Wu & Hancock (1999), J. Biol. Chem., v. 274, pp. 29-35). Test strains of bacteria from Mueller Hinton agar (MHA) plates were inoculated into 5 ml Mueller Hinton Broth (MHB) in tubes and grown overnight at 37° C. on a shaker (180 rpm). Serial dilutions of test peptides (at 10 times the required test concentrations) were made in 0.01% acetic acid, 0.2% BSA, in polypropylene or coated glass tubes as follows: the test peptide was (a) dissolved in distilled water at 20 times the required maximum concentration (enough final volume for all tests to be performed on a given day); (b) diluted into an equal volume of 0.02% acetic acid, 0.4% BSA to give 10 times the required maximum concentration; (c) serial doubling dilutions were performed in 0.01% acetic acid, 0.2% BSA to provide serial dilutions of peptides at 10 times the required test concentrations, e.g., 640, 320, 160, . . . 2.5 μg/ml. (No deleterious effects of long-term storage of peptides in these media have been detected). Overnight bacterial cultures were diluted in MHB to give 2−7×10^5 colony forming units/ml. Bacterial suspension (100 μl) was dispensed in each well; controls without bacteria were maintained in parallel. To each well was added 11 μl of 10× test peptide and plates were incubated at 37° C. for 18-24 hours, and checked again at 40-48 hours. Plates were read visually and at 600 nm in a microplate reader (Molecular Devices).
(§3) A further number of the peptides of the invention were tested for antimicrobial activity against a range of Gram-positive and Gram-negative bacteria by the assay described immediately before Example 1.

[2] = test system: S. aureus ATCC25923; format: cell-based, Staphylococcus aureus
From the text: as §1, §2, §3

[3] = test system: E. coli UB1005; format: cell-based, Escherichia coli; conditions: UB1005
Summary of the method: (§4)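 Overnight cultures were diluted in Mueller Hinton broth to 2−7×10^5 CFU/ml and mixed with serially doubled peptides prepared in 0.01% acetic acid with 0.2% BSA. Plates were incubated at 37° C for 18-24 hours, checked again at 40-48 hours, and read by eye and at 600 nm.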

[4] = test system: Human RBC; format: cell-based
Description: (§5) Erythrocytes from heparinized rabbit or human blood were washed three times with phosphate-buffered saline (PBS; 5 mM phosphate buffer, 0.14 M saline, pH 7.3), and centrifuged at 1000×g for 15 min at 4° C. The erythrocytes were diluted with PBS to 4% (v/v). Dilutions of the peptides in PBS were plated in 100 μl volumes in microtitre plates (Costar 3790, polypropylene) together with 100μl of the erythrocyte suspension. PBS was used as control and 100% lysis was determined in 0.1% Triton X-100. The plates were incubated at 37° C. for 1 h and then centrifuged at 1000×g for 5 min. 100 μl aliquots of the supernatant were transferred to microtitre plates (Nunc, polystyrene), and the release of hemoglobin was monitored by measurement of the absorbance at 540 nm in a microplate reader. The results are shown in Table 6, for peptide concentrations of […]. With only one or two exceptions, little or no hemolysis was seen.

[5] = test system: Rabbit RBC; format: cell-based
Description: as §5

[6] = test system: C498: E. coli, wild type strain; format: cell-based; conditions: C498: , wild type strain
From the text: as §1, §2
(§6) were synthesized. The antibacterial activity of these peptides was determined against both Gram-positive bacteria ([…], Corynebacterium xerosis) and Gram-negative bacteria (various strains of E. coli). The results are shown in Table 2, along with the average hydrophobicity of each peptide, calculated as described herein.

[7] = test system: C500: E. coli, antibiotic strain; format: cell-based; conditions: C500: , antibiotic strain
From the text: as §1, §2, §6

[8] = test system: P. aeruginosa ATCC27853; format: cell-based, Pseudomonas aeruginosa
From the text: as §1, §2, §3

[9] = test system: B. subtilis ATCC6633; format: cell-based, Bacillus subtilis
From the text: as §1, §2, §3

[10] = test system: Staphylococcus epidermidis (C621); format: cell-based; conditions: C621
Summary of the method: (§7)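 Broth microdilution in Mueller Hinton Broth, inoculum 2−7×10^5 CFU/ml. Peptides serially doubled in 0.01% acetic acid, 0.2% BSA and added at 10× final concentration. Incubation 37° C for 18-24 h, rechecked at 40-48 h; growth read visually and at 600 nm.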

[11] = test system: Corynebacterium xerosis (C875); format: cell-based
Summary of the method: as §7

[12] = test system: E. coli DC2; experiment: Assay of antibacterial activity (MIC), E. coli DC2; format: cell-based, Escherichia coli; conditions: Table 5A
Summary of the method: as §4

[13] = test system: E. faecalis ATCC29212; format: cell-based, Enterococcus faecalis
From the text: as §1, §2, §3

Row | Compound | MIC E. coli ATCC25922 [1] [µM] | MIC S. aureus ATCC25923 [2] [µM] | MIC E. coli UB1005 [3] [µM] | Human RBC (% lysis) 50 μM [4] [% lysis] | Human RBC (% lysis) 200 μM [4] [% lysis] | Rabbit RBC (% lysis) 50 μM [5] [% lysis] | Rabbit RBC (% lysis) 200 μM [5] [% lysis] | MIC C498 [6] [µM] | MIC C500 [7] [µM] | MIC P. aeruginosa ATCC27853 [8] [µM] | MIC B. subtilis ATCC6633 [9] [µM] | MIC S. epidermidis C621 [10] [µM] | MIC C875 [11] [µM] | MIC C. xerosis C875 [11] [µM] | MIC E. coli DC2 [12] [µM] | MIC E. faecalis ATCC29212 [13] [µM] | MIC C621 [10] [µM]
1 | C[C@H](NC(=O)[C@H](C)NC(=O)[C@H](Cc1ccccc1)NC(=O)[C@H](C)NC(=O)[C@H](C)NC(=O)[C@H](Cc1c[nH]c2ccccc12)NC(=O)[C@H](C)NC(=O)[C@H](C)NC(=O)[C@H](Cc1ccccc1)NC(=O)[C@H](C)NC(=O)[C@H](C)NC(=O)[C@H](CCCCN)NC(=O)[C@H](CCCCN)NC(=O)[C@H](CCCCN)NC(=O)[C@H](CCCCN)NC(=O)[C@H](CCCCN)NC(=O)[C@@H](N)CCCCN)C(N)=O [F17(K6), KKKKKKAAFAAWAAFAA-NH2] (H-KKKKKKAAFAAWAAFAA-NH2; N-terminus assumed) | 8 (≈ 14.7 µg/mL) | >32 | 1 (≈ 1.84 µg/mL) | 0 | 0 | 0 | 1 | 0.5 (≈ 0.918 µg/mL) | <0.25 | 16 (≈ 29.4 µg/mL) | 8 (≈ 14.7 µg/mL) | 4 (≈ 7.34 µg/mL) | 0.5 (≈ 0.918 µg/mL) | 0.5 (≈ 0.918 µg/mL) | 0.5 (≈ 0.918 µg/mL) | >32 | 
2 | C[C@H](NC(=O)[C@H](C)NC(=O)[C@H](CCCCN)NC(=O)[C@H](CCCCN)NC(=O)[C@@H](N)CCCCN)C(=O)N[C@@H](C)C(=O)N[C@@H](Cc1ccccc1)C(=O)N[C@@H](C)C(=O)N[C@@H](C)C(=O)N[C@@H](Cc1c[nH]c2ccccc12)C(=O)N[C@@H](C)C(=O)N[C@@H](C)C(=O)N[C@@H](Cc1ccccc1)C(=O)N[C@@H](C)C(=O)N[C@@H](CCCCN)C(=O)N[C@@H](CCCCN)C(=O)N[C@@H](CCCCN)C(N)=O [Peptide F17, KKKAAAFAAWAAFAKKK-NH2] (H-KKKAAAFAAWAAFAKKK-NH2; N-terminus assumed) | >32 | >32 | 32 (≈ 58.7 µg/mL) | 0 | 0 | 0 | 2 |  |  | >32 | 16 (≈ 29.4 µg/mL) | >32 |  | 4 (≈ 7.34 µg/mL) | 16 (≈ 29.4 µg/mL) | >32 | 
3 | C[C@H](NC(=O)[C@H](C)NC(=O)[C@H](Cc1ccccc1)NC(=O)[C@H](C)NC(=O)[C@H](C)NC(=O)[C@H](CCCNC(=N)N)NC(=O)[C@H](CCCNC(=N)N)NC(=O)[C@@H](N)CCCNC(=N)N)C(=O)N[C@@H](Cc1c[nH]c2ccccc12)C(=O)N[C@@H](C)C(=O)N[C@@H](C)C(=O)N[C@@H](Cc1ccccc1)C(=O)N[C@@H](C)C(=O)N[C@@H](C)C(=O)N[C@@H](CCCNC(=N)N)C(=O)N[C@@H](CCCNC(=N)N)C(=O)N[C@@H](CCCNC(=N)N)C(N)=O [Peptide F17R, RRRAAFAAWAAFAARRR-NH2] (H-RRRAAFAAWAAFAARRR-NH2; N-terminus assumed) | 8 (≈ 16 µg/mL) | >32 | 2 (≈ 4.01 µg/mL) | 0 | 0 | 0 | 2 | 2 (≈ 4.01 µg/mL) | 0.5 (≈ 1 µg/mL) | 16 (≈ 32.1 µg/mL) | 2 (≈ 4.01 µg/mL) | 4 (≈ 8.01 µg/mL) | 1 (≈ 2 µg/mL) | 1 (≈ 2 µg/mL) | 1 (≈ 2 µg/mL) | >32 | 
4 | C[C@H](NC(=O)[C@H](C)NC(=O)[C@H](C)NC(=O)[C@H](CCCCN)NC(=O)[C@@H](N)CCCCN)C(=O)N[C@@H](C)C(=O)N[C@@H](Cc1ccccc1)C(=O)N[C@@H](C)C(=O)N[C@@H](C)C(=O)N[C@@H](Cc1ccccc1)C(=O)N[C@@H](C)C(=O)N[C@@H](C)C(=O)N[C@@H](Cc1c[nH]c2ccccc12)C(=O)N[C@@H](Cc1ccccc1)C(=O)N[C@@H](C)C(=O)N[C@@H](C)C(=O)N[C@@H](Cc1ccccc1)C(=O)N[C@@H](C)C(=O)N[C@@H](C)C(=O)N[C@@H](C)C(=O)N[C@@H](C)C(=O)N[C@@H](CCCCN)C(=O)N[C@@H](CCCCN)C(=O)N[C@@H](CCCCN)C(=O)N[C@@H](CCCCN)C(N)=O [[F(4)25]] (H-KKAAAAFAAFAAWFAAFAAAAKKKK-NH2; N-terminus assumed) | 16 (≈ 40.9 µg/mL) | 32 (≈ 81.8 µg/mL) | 8 (≈ 20.4 µg/mL) | 17 | 42 | 14 | 34 | 16 (≈ 40.9 µg/mL) | 4 (≈ 10.2 µg/mL) | 8 (≈ 20.4 µg/mL) | 2 (≈ 5.11 µg/mL) | 4 (≈ 10.2 µg/mL) | 0.25 (≈ 0.639 µg/mL) |  |  | >32 | 8 (≈ 20.4 µg/mL)
